Assays:
Type in all cases: cell-based
[1] = system: S3 strain, presumed to be Serratia sp.; experiment: Sterilizing effect of microbicidal liquids in the inoculating process (FIG. 9), S3; conditions: inoculated on potato explant; explant treated with microbicidal liquid (Ox 200 mg/L or higher; Nata 10000 mg/L or higher)
Procedure: (§1) An experiment was conducted to determine how the sterilizing effect after inoculation is related to the concentrations and combination of the agents used in the microbicidal liquid for explants and the microbicidal liquid for culture vessels. The experimental condition was as follows:
(§2) Solid culture medium: dosed with Otsuka-A
(§3) Sterilizing method: autoclave
(§4) Method of inoculation of bacteria: on culture medium surface [as for “B5” and “S3”, 50 μL per test tube of the bacterial suspension was dropped onto the surface of the culture medium; and as for “An”, 10 mg per test tube of either a conidial powder or a conidial powder diluted with a-starch to a predetermined dilution ratio was poured onto the culture medium]; or on explant [as for “B5” and “S3”, the explant was immersed in the bacterial suspension (whereby 10 μL per explant was attached); and as for “An”, the explant was coated with either a conidial powder or a conidial powder diluted with a-starch to a predetermined dilution ratio (whereby 5 mg per explant was attached)]

plant bodies = experiment: Influence of agent concentration on growth of plant (solid culture medium, FIG. 6); conditions: 30 days
Source text: The influence of a change in the concentrations of the agents used for sterilizing the culture medium on the growth of plants was investigated. The culture condition in this experiment was as follows:
Culture medium components: solid culture medium dosed with Otsuka-A
Number of plant bodies: 10
Numerical values: average±standard deviation
Sterilizing method: one-time dosing mode
Inoculating method (Culturing method): the method shown in FIG. 4 was used, with SE-P2000Cl140/SE-P2000Cl140 as the first/second microbicidal liquids, respectively.
In FIG. 6, the “Autoclave (Conventional Method)” indicates comparative examples, in which an explant which had undergone a microbicidal treatment in an autoclave was placed in a liquid culture medium and cultured in a clean bench.

[2] = system: microbial colony formation (bacteria, filamentous fungi); experiment: Microbial recontamination of sterilized solid culture medium after solidification (FIG. 8)
Procedure: A sterilized culture medium (Otsuka-A solid culture medium) was placed in 50 test tubes held in a tube stand and kept intact on a standard laboratory table (at temperatures of 14-24° C.), and the temporal change in the degree of microbial colony formation was investigated.

[3] = system: B5 strain, presumed to be Bacillus subtilis; experiment: Sterilizing effect of microbicidal liquids in the inoculating process (FIG. 9), B5; conditions: inoculated on potato explant; explant treated with microbicidal liquid (Cap or Nata 10000 mg/L or higher)
Procedure: as §1, §2, §3, §4

[4] = system: An (filamentous fungus, presumed to be Aspergillus niger complex); experiment: Sterilizing effect of microbicidal liquids in the inoculating process (FIG. 9), An; conditions: bacteria inoculated on potato explant, explant treated, 14 days
Procedure: as §1, §2, §3, §4

external bacteria = experiment: Occurrence rate of microbial contamination of liquid culture medium after sterilization (FIG. 14); conditions: explants inoculated in a common room, no bacteria inoculated
Procedure: The contamination rate by external bacteria after sterilization of a liquid culture medium was investigated. In any cases, the result was obtained under the condition that the inoculation of explants was performed in a common room with no bacteria inoculated. […] The microbial contamination rate increased when any one of the following agents was omitted: SE-P, Nisin, Ox, Nata, Cap, Imp10 and Cl7.

C[C@@H]1C/C=C/C=C/C=C/C=C/[C@H](O[C@@H]2O[C@H](C)[C@@H](O)[C@H](N)[C@@H]2O)C[C@@H]2O[C@](O)(C[C@@H](O)C[C@H]3O[C@@H]3/C=C/C(=O)O1)C[C@H](O)[C@H]2C(=O)O [Natamycin]
formation of S3 colonies [1]: could not prevent
concentration that did not negatively affect growth (plant bodies): ≤ 100 µg/mL
open storage of the culture ([2]; Natamycin in addition to P1670, Nisaplin and wettable powder STARNER, no ZonenC): open storage of the culture was not possible
newly invasion of filamentous fungi ([2]; used in addition to P1670, Nisaplin and wettable powder STARNER): dramatically decreased
formation of B5 colonies [3]: could not prevent
concentration in microbicidal liquid preventing An colony formation to some extent [4]: ≥ 10000 mg/L
microbial contamination rate when the agent was omitted (external bacteria): increased

Egg-white lysozyme
need of adding the agent to prevent microbial contamination (external bacteria): not necessary
